Columns and labels:
[1] = Caco-2 membrane permeability and efflux rate; format: in vitro ADME; details: human, Caco-2, Caco-2, 5 μM
Procedure, shortened: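 Caco-2 monolayers after 14-18 days' culture; compound at 5 μM final in HBSS (10 mM HEPES, pH 7.4), apical-to-basal and basal-to-apical, 2 h at 37° C. LC/MS/MS gives Papp (10-6 cm/s) and efflux ratio; lucifer yellow checks monolayer integrity.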

[2] = target: CDK7/cyclinH/MAT1 complex (Homo sapiens, UniProt P50613); assay: In-vitro enzymatic inhibitory activity testing, CDK7 inhibition assay (Caliper EZ Reader II); format: biochemical; details: CDK7/cyclinH/MAT1 6 nM, 180 min at 27° C.
Sequence of CDK7/cyclinH/MAT1 complex (P50613 whole entry, species assumed): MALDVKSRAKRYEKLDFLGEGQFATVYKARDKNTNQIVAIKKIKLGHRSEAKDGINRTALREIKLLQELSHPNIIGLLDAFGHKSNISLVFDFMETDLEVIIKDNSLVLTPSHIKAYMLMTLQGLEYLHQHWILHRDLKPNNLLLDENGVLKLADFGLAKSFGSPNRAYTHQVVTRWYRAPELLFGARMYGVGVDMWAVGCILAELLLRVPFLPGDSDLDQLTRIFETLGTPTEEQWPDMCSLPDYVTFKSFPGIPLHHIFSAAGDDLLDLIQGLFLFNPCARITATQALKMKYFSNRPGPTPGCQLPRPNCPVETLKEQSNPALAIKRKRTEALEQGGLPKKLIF
Sequence of CDK7/cyclinH/MAT1 complex (P51946 whole entry partner, species assumed): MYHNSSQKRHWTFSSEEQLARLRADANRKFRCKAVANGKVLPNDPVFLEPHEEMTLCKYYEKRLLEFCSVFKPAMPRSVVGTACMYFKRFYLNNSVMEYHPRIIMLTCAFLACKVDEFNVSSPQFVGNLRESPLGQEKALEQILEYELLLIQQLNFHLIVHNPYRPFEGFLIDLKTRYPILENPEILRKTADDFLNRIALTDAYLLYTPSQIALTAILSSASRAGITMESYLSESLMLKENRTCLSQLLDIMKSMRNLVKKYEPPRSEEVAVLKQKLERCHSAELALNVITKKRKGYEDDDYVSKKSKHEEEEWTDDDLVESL
Sequence of CDK7/cyclinH/MAT1 complex (P51948 whole entry partner, species assumed): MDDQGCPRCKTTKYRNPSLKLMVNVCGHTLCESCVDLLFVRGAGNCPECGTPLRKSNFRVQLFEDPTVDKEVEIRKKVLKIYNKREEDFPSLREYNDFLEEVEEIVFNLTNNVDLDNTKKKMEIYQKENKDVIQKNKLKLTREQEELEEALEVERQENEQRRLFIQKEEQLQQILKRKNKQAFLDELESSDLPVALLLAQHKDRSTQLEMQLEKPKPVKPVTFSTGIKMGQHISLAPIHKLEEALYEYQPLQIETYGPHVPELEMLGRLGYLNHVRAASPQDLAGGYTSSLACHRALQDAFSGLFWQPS
Procedure, shortened: (§1)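 Enzyme preincubated 10 min with compound, then peptide substrate plus ATP added in 80 mM MES pH 6.5, 10 mM MgCl2 buffer; 180 min at 27 °C, stopped with EDTA.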

[3] = tested on: ovarian cancer A2780; assay: Cell biological activity detection (CyQuant, 72 hours), A2780; format: cell-based, human; details: Homo sapiens, A2780, 72 h, A2780 cells, incubation for 72 hours
Procedure, shortened: (§2)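 A2780 and HCC70 cells seeded at 2000/well in RPMI 1640 + 10% FBS, treated next day with 9-point compound dilutions (top 10 μM, 1:4; 0.2% DMSO) for 72 h at 37 °C. Cell number read by CyQuant Direct nucleic acid stain (ex 488 nm); IC50 from dose–response fit.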

[4] = tested on: human breast cancer cells HCC70; assay: Cell biological activity detection (CyQuant, 72 hours), HCC70; format: cell-based; details: Homo sapiens, HCC70, 72 h, incubation for 72 hours
Procedure, shortened: as §2

[5] = target: CDK9/cyclinT1 complex (Homo sapiens, UniProt P50750); assay: In-vitro enzymatic inhibitory activity testing, CDK9 inhibition assay (Caliper EZ Reader II); format: biochemical; details: CDK9/cyclinT1 8 nM, 180 min at 27° C.
Sequence of CDK9/cyclinT1 complex (P50750 whole entry, species assumed): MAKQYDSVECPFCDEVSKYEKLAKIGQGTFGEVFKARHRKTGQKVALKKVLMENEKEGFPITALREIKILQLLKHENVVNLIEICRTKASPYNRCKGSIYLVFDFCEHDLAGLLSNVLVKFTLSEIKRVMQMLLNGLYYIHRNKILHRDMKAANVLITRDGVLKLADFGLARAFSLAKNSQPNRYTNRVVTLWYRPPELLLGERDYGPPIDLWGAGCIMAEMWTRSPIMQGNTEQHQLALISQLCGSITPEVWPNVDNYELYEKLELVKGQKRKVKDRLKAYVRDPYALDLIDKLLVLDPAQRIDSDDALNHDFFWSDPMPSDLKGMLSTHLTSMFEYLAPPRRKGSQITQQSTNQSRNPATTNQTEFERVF
Sequence of CDK9/cyclinT1 complex (O60563 whole entry partner, species assumed): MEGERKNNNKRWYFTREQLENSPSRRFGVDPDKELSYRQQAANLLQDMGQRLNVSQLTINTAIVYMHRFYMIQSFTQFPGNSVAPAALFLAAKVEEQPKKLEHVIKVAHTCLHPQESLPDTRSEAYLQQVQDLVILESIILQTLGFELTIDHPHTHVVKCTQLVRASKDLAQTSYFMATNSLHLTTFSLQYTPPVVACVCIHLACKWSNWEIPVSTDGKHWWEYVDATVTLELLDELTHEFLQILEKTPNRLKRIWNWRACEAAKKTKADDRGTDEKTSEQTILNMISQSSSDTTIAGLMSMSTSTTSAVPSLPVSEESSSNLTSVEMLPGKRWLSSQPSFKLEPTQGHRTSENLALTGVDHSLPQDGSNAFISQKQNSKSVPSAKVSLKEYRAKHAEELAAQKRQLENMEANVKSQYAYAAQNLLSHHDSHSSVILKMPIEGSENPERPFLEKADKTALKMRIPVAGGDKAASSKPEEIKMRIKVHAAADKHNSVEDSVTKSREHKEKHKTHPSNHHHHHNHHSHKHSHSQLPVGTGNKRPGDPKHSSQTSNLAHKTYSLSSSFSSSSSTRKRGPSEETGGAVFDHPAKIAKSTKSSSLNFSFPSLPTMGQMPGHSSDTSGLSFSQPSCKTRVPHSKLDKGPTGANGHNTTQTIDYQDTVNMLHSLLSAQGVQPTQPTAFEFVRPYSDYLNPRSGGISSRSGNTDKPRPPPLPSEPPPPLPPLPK
Procedure, shortened: as §1

Structure (SMILES): C[C@@H](CO)Nc1ncc(C(F)(F)F)c(-c2c[nH]c3c(P(C)(C)=O)c(F)ccc23)n1 [Compound 195]
- Papp B→A at 2 h, 5 μM ([1]; basal end to top end): 24.4 ×10⁻⁶ cm/s
- efflux ratio at 2 h, 5 μM ([1]; read-out: ER (efflux rate)): 2.36
- Papp A→B at 2 h, 5 μM ([1]; top end to basal end): 10.3 ×10⁻⁶ cm/s
- IC50 [2]: < 20 nM
- IC50 [3]: < 20 nM
- IC50 [4]: < 20 nM
- IC50 [5]: > 50000 nM

Source: patent US20240124504A1, “AROMATIC HETEROCYCLIC COMPOUND, AND PHARMACEUTICAL COMPOSITION AND APPLICATION THEREOF” (GT APEIRON THERAPEUTICS LIMITED, priority 2020, published 2024)
